Tests used:
[1] = test system: Escherichia coli; experiment: Kirby-Bauer disk diffusion growth inhibition, Escherichia coli; format: cell-based; conditions: Escherichia coli; 125 ng/ml in water, 100 μl on 10 mm disk, 18 hours 37° C.; read-out: Zone of inhibition Escherichia coli
Description: (§1) The compounds disclosed herein were tested for growth inhibition against four strains of bacteria: Escherichia coli, Staphylococcus aureus, methicillin-resistant Staphylococcus aureus, and Bacillus subtilis. […] They represent […]. E. coli is a gram-negative, non-spore forming, rod-shaped, opportunistic pathogen that resides in the human digestive tract. S. aureus is a gram positive coccus, is usually found morphologically as a […], and is an opportunistic human pathogen, often residing on or in the skin. B. subtilis is a gram positive spore-forming rod. Its native environment is the soil. The chemicals were tested for growth-inhibition of the bacteria by the Kirby-Bauer method. See, e.g., Microbiology, third edition; Lansing M. Prescott, John P. Harley, and Donald A. Klein; Wm. C. Brown Publishers.
(§2) Mueller-Hinton agar (Difco Lab, Michigan) was prepared according to the manufacturer's directions, and 20 ml was dispensed in each sterile petri dish. Sterile nutrient broth (Difco Lab, Michigan) was also prepared according to the manufacturer's directions.
(§3) Bacteria were grown in liquid nutrient broth for 18 hours at 37° C. until they were turbid.
(§4) An aliquot of 0.5 ml of cultured bacteria was aseptically transferred to the surface of a Mueller-Hinton agar plat, and spread using a cotton-tipped swab. Plates were then allowed to dry for 5 minutes. Then a 10 mm diameter filter paper disk impregnated with the test chemical was placed with sterile forceps on the plate. The disks were impregnated with 100 μl of a solution of the test compound in DMSO or in water, at the indicated concentrations in Table 1.
(§5) The zones of inhibition were measured after 18 hours growth at 37° C. Tests were done in triplicate.
(§6) Additional compounds were tested for activity against E. coli, laboratory strain S. aureus (not methicillin resistant), and B. subtilis. The compounds were tested by the disk diffusion method, as in Example 1, with application of a 10 mg/mil solution of the test compound in DMSO.

[2] = test system: Staphylococcus aureus; experiment: Kirby-Bauer disk diffusion growth inhibition, Staphylococcus aureus; format: cell-based; conditions: for zone of inhibition at 0.125 µg/mL: 125 ng/ml in water, 100 μl on 10 mm disk, 18 hours 37° C., read-out: Zone of inhibition Staphylococcus aureus; for Active against: Table 1 summary, S. aureus
Description: as §1, §2, §3, §4, §5, §6
(§7) Derivatives of lupeol were tested for inhibition of bacterial growth using the Kirby-Bauer disk diffusion method and by growth in liquid culture. For the disk diffusion method, compounds were dissolved in DMSO and 100 μl was added to the 10 mm filter paper disk. The amount of compound applied to the disk varied. The amount applied for each compound was as follows: lupeol (50 μg), lupeol-3-maleate (15 μg), lupeol-3-thiodiglycolate (15 μg), lupeol-3-dimethyl succinate (60 μg), lupeol-3-phosphate (30 μg), lupenone (50 μg), lupenon-3-oxime (50 μg), lupeol-3-amine (50 μg), lupenon-1,2-ene-2-ol (50 μg). In liquid culture, the compounds were dissolved in DMSO at 1 mg/ml and then 100 μl was added to 7 ml of sterile broth, along with a 1/200 dilution of freshly grown bacterial liquid culture.

[3] = test system: Bacillus subtilis; experiment: Kirby-Bauer disk diffusion growth inhibition, Bacillus subtilis; format: cell-based; conditions: Bacillus subtilis; 125 ng/ml in water, 100 μl on 10 mm disk, 18 hours 37° C.; read-out: Zone of inhibition Bacillus subtilis
Description: as §1, §2, §3, §4, §5, §6

[4] = test system: Staphylococcus epidemidis; experiment: Kirby-Bauer disk diffusion of lupeol derivatives, Staphylococcus epidermidis; format: cell-based; conditions: for activity against S. epidermidis: Example 35, disk diffusion and liquid growth; for Active against: Table 1 summary, S. epidermidis
Description: as §7

[5] = test system: Enterococcus faecalis; experiment: Kirby-Bauer disk diffusion of lupeol derivatives, Enterococcus faecalis; format: cell-based; conditions: for Active against: Table 1 summary, E. faecalis
Description: as §7

[6] = test system: Staphylococcus epidermis; experiment: Growth in liquid culture, optical density, S. epidermidis; format: cell-based, Staphylococcus epidermidis; conditions: 600 nm, 24 hours growth, test compound at 14 μg per ml; None = 0.07
Description: as §7

[7] = test system: Staphylococcus aureus; experiment: Growth in liquid culture, optical density, S. aureus; format: cell-based; conditions: 600 nm, 24 hours growth, test compound at 14 μg per ml; None = 0.08
Description: as §7

[8] = test system: Enterococcus faecilis; experiment: Growth in liquid culture, optical density, E. faecalis; format: cell-based, Enterococcus faecalis; conditions: 600 nm, 24 hours growth, test compound at 14 μg per ml; None = 0.85
Description: as §7

[9] = test system: bacteria; experiment: Summary statements over the antibacterial assays above; format: cell-based; conditions: summary list
[10] = 50 μg applied to 10 mm disk in DMSO
[11] = Example 35, 15 μg applied to 10 mm disk in DMSO
[12] = 15 μg applied to 10 mm disk in DMSO
[13] = 30 μg applied to 10 mm disk in DMSO

C=C(C)[C@@H]1CCC2(CO)CC[C@@]3(C)C(CCC4[C@@]5(C)C=C(O)C(=O)C(C)(C)C5CC[C@]43C)C12 (stereo partly shown) [Betulon-1,2-ene-ol, betulon-1-ene-2-ol]
zone of inhibition at 0.125 µg/mL [1]: 0 mm | zone of inhibition at 0.125 µg/mL ([2]; Staphylococcus aureus): 0 mm | zone of inhibition at 0.125 µg/mL [3]: 0 mm | melting point: 167 to 170 °C (dec.)

C=C(C)[C@@H]1CC[C@]2(C)CC[C@]3(C)[C@H](CC[C@@H]4[C@@]5(C)CCC(N)C(C)(C)[C@@H]5CC[C@]43C)[C@@H]12 (stereo partly shown) [Lupeol-3-amine]
Zone of inhibition (mm) against S. aureus ([2]; Example 35, 50 μg applied to 10 mm disk in DMSO): 0.3 mm | Active against [2]: S. aureus, | Zone of inhibition (mm) against S. epiderm. [4, 10]: 0 mm | Zone of inhibition (mm) against E. faecalis [5, 10]: 0.5 mm | Active against [5]: E. faecalis | Optical Density of S. epiderm [6]: 0.06 | Optical Density of S. aureus [7]: 0.06 | Optical Density of E. faecalis [8]: 0.04 | active against at least one strain of bacteria in the assays above [9]: active against at least one strain of bacteria

C=C(C)C1CCC2(C)CCC3(C)C(CCC4C5(C)CCC(OC(=O)C=CC(=O)O)C(C)(C)C5CCC43C)C12 (stereo not shown) [Lupeol-3-maleate]
Zone of inhibition (mm) against S. aureus [2, 11]: 0.4 mm | Active against [2]: S. aureus, | Zone of inhibition (mm) against S. epiderm. [4, 12]: 0.5 mm | activity against S. epidermidis [4]: active | Active against [4]: S. epidermidis, | Zone of inhibition (mm) against E. faecalis [5, 12]: 1.15 mm | Active against [5]: E. faecalis | Optical Density of S. epiderm [6]: 0.04 | Optical Density of S. aureus [7]: 0.06 | Optical Density of E. faecalis [8]: 0.03 | active against at least one strain of bacteria in the assays above [9]: active against at least one strain of bacteria

C=C(C)[C@@H]1CC[C@]2(C)CC[C@]3(C)[C@H](CC[C@@H]4[C@@]5(C)CC[C@H](OP(=O)(O)O)C(C)(C)[C@@H]5CC[C@]43C)[C@@H]12 [Lupeol-3-phosphate]
Zone of inhibition (mm) against S. aureus ([2]; Example 35, 30 μg applied to 10 mm disk in DMSO): 0.5 mm | Active against [2]: S. aureus, | Zone of inhibition (mm) against S. epiderm. [4, 13]: 0 mm | Zone of inhibition (mm) against E. faecalis [5, 13]: 0.5 mm | Active against [5]: E. faecalis | Optical Density of S. epiderm [6]: 0.06 | Optical Density of S. aureus [7]: 0.06 | Optical Density of E. faecalis [8]: 0.04 | active against at least one strain of bacteria in the assays above [9]: active against at least one strain of bacteria

C=C(C)[C@@H]1CC[C@]2(C)CC[C@]3(C)[C@H](CC[C@@H]4[C@@]5(C)CC[C@H](OC(=O)CSCC(=O)O)C(C)(C)[C@@H]5CC[C@]43C)[C@@H]12 [Lupeol-3-thiodiglycolate]
Zone of inhibition (mm) against S. aureus [2, 11]: 0.3 mm | Active against [2]: S. aureus, | Zone of inhibition (mm) against S. epiderm. [4, 12]: 0.5 mm | activity against S. epidermidis [4]: active | Active against [4]: S. epidermidis, | Zone of inhibition (mm) against E. faecalis [5, 12]: 0.75 mm | Active against [5]: E. faecalis | Optical Density of S. epiderm [6]: 0.035 | Optical Density of S. aureus [7]: 0.06 | Optical Density of E. faecalis [8]: 0.04 | active against at least one strain of bacteria in the assays above [9]: active against at least one strain of bacteria

C=C(C)[C@@H]1CC[C@]2(C)CC[C@@]3(C)C(CCC4[C@@]5(C)CC[C@H](O)C(C)(C)C5CC[C@]43C)C12 (stereo partly shown) [Lupeol]
zone of inhibition at 0.125 µg/mL [1]: 0 mm | zone of inhibition at 0.125 µg/mL ([2]; Staphylococcus aureus): 0 mm | zone of inhibition at 50 µg/disc ([2]; Staphylococcus aureus, Example 35, 50 μg applied to 10 mm disk in DMSO, read-out: Zone of inhibition (mm) against S. aureus): 1 mm | Active against [2]: S. aureus, | zone of inhibition at 0.125 µg/mL [3]: 0 mm | activity against S. epidermidis [4]: active | zone of inhibition at 50 µg/disc ([4]; Staphylococcus, 50 μg applied to 10 mm disk in DMSO, read-out: Zone of inhibition (mm) against S. epiderm.): 0 mm | Active against [4]: S. epidermidis | zone of inhibition at 50 µg/disc ([5]; Enterococcus faecalis, 50 μg applied to 10 mm disk in DMSO, read-out: Zone of inhibition (mm) against E. faecalis): 1.4 mm | Active against [5]: Enterococcus faecalis | Optical Density of S. epiderm [6]: 0.04 | Optical Density of S. aureus [7]: 0.06 | Optical Density of E. faecalis [8]: 0.03 | active against at least one strain of bacteria in the assays above [9]: active against at least one strain of bacteria
